Reference: the RepoRT retention time repository

Experiment: Waters ACQUITY UPLC BEH C18, 100 × 2.1 mm, 1.7 µm, 40 °C, 0.3 to 0.4 mL/min, estimated dead time 0.63 min; A: water + 0.1% formic acid; B: methanol + 0.1% formic acid; gradient (min/%B) 0/0.5 0.1/0.5 10/80 10.1/99.5 12/99.5
Details: stereoisomer not certain

| Compound | LC retention time |
| --- | --- |
| O=c1cc(-c2ccc(O)c(O)c2)oc2c(C3OC(CO)C(O)C(O)C3O)c(O)c(C3OC(CO)C(O)C(O)C3O)c(O)c12 (centres undefined) | 3.1 min |
| CCC1CN2CCc3c([nH]c4cccc(OC)c34)C2CC1C(=COC)C(=O)OC (centres undefined) | 5.54 min |
| CCN1CC2(COC)C(O)CC(OC)C34C5CC6(O)C(OC)C(O)C(OC(C)=O)(C5C6OC(=O)c5ccccc5)C(C(OC)C23)C14 (centres undefined) | 5.97 min |
| O=c1cc(-c2ccc(O)cc2)oc2cc(OC3OC(CO)C(O)C(O)C3O)c(C3OC(CO)C(O)C(O)C3O)c(O)c12 (centres undefined) | 3.52 min |
| COc1ccc(-c2cc(=O)c3c(O)cc(OC4OC(CO)C(O)C(O)C4OC4OC(C)C(O)C(O)C4O)cc3o2)cc1O (centres undefined) | 4.47 min |
| CCC1C2CC3C4N(C)c5ccccc5C45CC(C2C5O)N3C1O (centres undefined) | 4.13 min |
| CCC(C)C(N)C(=O)O (centres undefined) | 1.94 min |
| COc1cc(-c2cc(=O)c3c(O)cc(OC4OC(C(=O)O)C(O)C(O)C4OC4OC(C(=O)O)C(O)C(O)C4O)cc3o2)ccc1O (centres undefined) | 4.05 min |
| CC1OC(OC2C(CO)OC(OC3CCC4(C)C(=CC(O)C5C4CCC4(C)C5CC5OC6(CCC(C)(COC7OC(CO)C(O)C(O)C7O)O6)C(C)C54)C3)C(OC3OC(C)C(O)C(O)C3O)C2O)C(O)C(O)C1O (centres undefined) | 4.5 min |
| O=C(O)c1cc(=O)c2ccccc2[nH]1 | 3.11 min |
| CN1CCCC1c1cccnc1 (centres undefined) | 1.62 min |
| CCC12C=CCN3CCC4(C(=C(C(=O)OC)C1)Nc1ccccc14)C32 (centres undefined) | 5.2 min |
| CC1OC(Oc2cc(O)c3c(=O)c(OC4OC(CO)C(O)C(O)C4OC4OC(CO)C(O)C(O)C4O)c(-c4ccc(O)c(O)c4)oc3c2)C(O)C(O)C1O (centres undefined) | 2.95 min |
| CCCC(=O)OC(CC(=O)[O-])C[N+](C)(C)C (centres undefined) | 2.18 min |
| CCC(C)C(=O)OC1C(O)C2C(CN3CC(C)CCC3C2(C)O)C2CC34OC5(O)C(OC(=O)C(C)(O)C(C)OC(C)=O)CCC3(C)C5CC(O)C4C21O (centres undefined) | 5.04 min |
| CCN1CC2(COC)CCC(O)C34C5CC6C(OC)CC(O)(C(CC23)C14)C5C6O (centres undefined) | 2.91 min |
| CCCCCCCCCCCCCCCC(=O)OCC(O)COP(=O)(O)OCCN (centres undefined) | 10 min |
| CC1C(=O)OC2C(O)C34C5OC(=O)C3(OC3OC(=O)C(O)C34C(C(C)(C)C)C5O)C12O (centres undefined) | 4.33 min |
| CCCCCC(O)CC(=O)CCc1ccc(O)c(OC)c1 (centres undefined) | 7.45 min |
| COc1cc(C2c3cc4c(cc3C(OC3OC5COC(C)OC5C(O)C3O)C3COC(=O)C23)OCO4)cc(OC)c1O (centres undefined) | 5.4 min |
| O=C1CC2OCC=C3CN4CCC56c7ccccc7N1C5C2C3CC46 (centres undefined) | 3.46 min |
| CC=C1CN2C3CC1C(CO)C2Cc1c3[nH]c2cc(OC)ccc12 (centres undefined) | 3.68 min |
| CC1OC(OC2C(OC3C(OC4CCC5(C)C(CCC6(C)C5CC=C5C7CC(C)(C)CC(O)C7(C)CCC56C)C4(C)CO)OC(C(=O)O)C(O)C3O)OCC(O)C2O)C(O)C(O)C1O (centres undefined) | 7.28 min |
| Cc1nccc2c1[nH]c1ccccc12 | 3.7 min |
| CC1OC(OCC2OC(Oc3c(-c4ccc(O)c(O)c4)oc4cc(OC5OC(CO)C(O)C(O)C5O)cc(O)c4c3=O)C(O)C(O)C2O)C(O)C(O)C1O (centres undefined) | 3.39 min |
| COc1cc(C=CC(=O)OC2CC(O)(C(=O)O)CC(O)C2O)ccc1O (centres undefined) | 3.71 min |
| CC1CCC2(NC1)OC1CC3C4CC=C5CC(OC6OC(CO)C(O)C(OC7OC(CO)C(O)C(O)C7O)C6OC6OC(C)C(O)C(O)C6O)CCC5(C)C4CCC3(C)C1C2C (centres undefined) | 4.62 min |

| Compound | LC retention time |
| --- | --- |
| CN1C2CCC1CC(OC(=O)C(CO)c1ccccc1)C2 (centres undefined) | 3.59 min |
| CCN1CC2(OC(=O)c3ccccc3N)CCC(OC)C34C1C(CC23)C1(O)CC(OC)C2CC4C1(O)C2OC (centres undefined) | 4.95 min |
| CC1OC(OC2CCC3(C)C(CCC4(C)C3CC=C3C5CC(C)(C)CCC5(C(=O)O)CCC34C)C2(C)CO)C(O)C(OC2OC(CO)C(OC3OC(CO)C(O)C(O)C3O)C(O)C2O)C1O (centres undefined) | 6.92 min |
| O=C(O)C1OC(Oc2c(-c3ccc(O)c(O)c3)oc3cc(O)cc(O)c3c2=O)C(O)C(O)C1O (centres undefined) | 4.01 min |
| COC(=O)C1=C2Nc3ccccc3C23CCN2C4OC56C7CC4(CN5c4c(OC)cccc4C64CCN5CCC6OCCC6(C7)C54)C4OCCC4(C1)C23 (centres undefined) | 5.79 min |
| CCCCCCCCCCCCCCC(O)C(O)C(N)CO (centres undefined) | 7.82 min |
| COc1ccc2cc1Oc1ccc(cc1)CC1c3cc(c(OC)cc3CCN1C)Oc1c(OC)c(OC)c(OC)c3c1C(C2)N(C)CC3 (centres undefined) | 4.41 min |
| CC(C)(CO)C(O)C(=O)NCCC(=O)O (centres undefined) | 2.48 min |
| OC1CCN2Cc3ccccc3N=C12 (centres undefined) | 2.55 min |
| C[N+]1([O-])CCCC1c1cccnc1 (centres undefined) | 1.82 min |
| COC(=O)C1CC23CCCN4CCC5(c6ccccc6NC15CC2)C43 (centres undefined) | 3.92 min |
| O=C(O)CC(=O)NC(Cc1c[nH]c2ccccc12)C(=O)O (centres undefined) | 4.35 min |
| COc1cc(O)c2c(c1)OC(c1ccc(O)cc1)CC2=O (centres undefined) | 7.42 min |
| COc1cc(C=O)ccc1OC(C)=O | 5.59 min |
| Cc1ncc(COC2OC(CO)C(O)C(O)C2O)c(CO)c1O (centres undefined) | 1.7 min |
| CN1c2cc(O)c(N=NC(N)=O)cc2CC1S(=O)(=O)O (centres undefined) | 2.69 min |
| CC(=O)OC1CC(COC2OC(CO)C(O)C(O)C2OC2OC(CO)C(O)C(O)C2O)CNC12OC1CC3C4CCC5CC(OC6OC(CO)C(OC7OC(CO)C(OC8OCC(O)C(O)C8O)C(O)C7OC7OC(CO)C(O)C(O)C7O)C(O)C6O)CCC5(C)C4CCC3(C)C1C2C (centres undefined) | 3.84 min |
| CCc1nccc2c1[nH]c1ccccc12 | 4.01 min |
| O=c1c(O)c(-c2ccc(O)c(O)c2)oc2cc(O)cc(O)c12 | 5.37 min |
| CC(=O)OC1CCC2(C)C(=CCC3C2CCC2(C)C3CC3OC4(CCC(C)CN4)C(C)C32)C1 (centres undefined) | 8.16 min |
| OCC1OC(OC2C(Oc3cc4c(O)cc(O)cc4[o+]c3-c3ccc(O)c(O)c3)OC(CO)C(O)C2O)C(O)C(O)C1O (centres undefined) | 2.77 min |
| O=C1NCC(=O)N2CCCC12 (centres undefined) | 2.06 min |
| COc1cc(-c2cc(=O)c3c(O)cc(OC4OC(COC(=O)CC(=O)O)C(O)C(O)C4O)cc3o2)cc(OC)c1O (centres undefined) | 4.91 min |
| CC1=C(CCC(C)COC2OC(CO)C(O)C(O)C2O)OC2CC3C4CC=C5CC(O)CC(OC6OCC(O)C(O)C6OC6OC(C)C(O)C(O)C6O)C5(C)C4CCC3(C)C12 (centres undefined) | 5.59 min |
| O=c1cc(-c2ccc(O)c(O)c2)oc2c(C3OC(CO)C(O)C(O)C3O)c(O)cc(O)c12 (centres undefined) | 3.7 min |
| CC(C)CC(N)C(=O)NC(Cc1ccccc1)C(=O)O (centres undefined) | 3.64 min |
| CC(C)C(N)C(=O)NC(Cc1ccccc1)C(=O)O (centres undefined) | 3.23 min |

The remaining lines, values ahead:

| LC retention time | Compound |
| --- | --- |
| 4.6 min | O=C(C=Cc1ccc(O)c(O)c1)OC1CC(O)(C(=O)O)CC(OC(=O)C=Cc2ccc(O)c(O)c2)C1O (centres undefined) |
| 3.16 min | O=C(O)CCC(NCC1(O)OCC(O)C(O)C1O)C(=O)NC(Cc1ccccc1)C(=O)O (centres undefined) |
| 1.8 min | O=c1ccn(C2OC(CO)C(O)C2O)c(=O)[nH]1 (centres undefined) |
| 4.37 min | O=c1c(OC2OC(CO)C(O)C(O)C2O)c(-c2ccc(O)cc2)oc2cc(O)cc(O)c12 (centres undefined) |
| 4.8 min | CC(C)=CCCC(C)(OC1OC(CO)C(O)C(O)C1O)C1CCC2(C)C1C(O)CC1C3(C)CCC(O)C(C)(C)C3C(OC3OC(CO)C(O)C(O)C3O)CC12C (centres undefined) |
| 8.11 min | CC(C)=CCc1cc(C2CC(=O)c3c(O)cc(O)cc3O2)ccc1O (centres undefined) |
| 4.61 min | CC1OC(OC2C(c3c(O)cc(O)c4c(=O)cc(-c5ccc(O)cc5)oc34)OC(CO)C(O)C2O)C(O)C(O)C1O (centres undefined) |
| 4.86 min | COc1cc2c(cc1OC)C1C(C)c3ccc(OC)c(OC)c3CN1CC2 (centres undefined) |
| 9.79 min | CCCCCC=CC=CC(O)CCCCCCCC(=O)O (centres undefined) |
| 4.01 min | COc1cc(C=CC(=O)OC2C(OC3C(Oc4c(-c5ccc(O)cc5)oc5cc(OC6OC(CO)C(OC7OC(CO)C(O)C(O)C7O)C(O)C6O)cc(O)c5c4=O)OC(CO)C(O)C3O)OC(CO)C(O)C2O)ccc1O (centres undefined) |
| 4.79 min | CC(C)=CCCC(C)(OC1OC(CO)C(O)C(O)C1O)C1CCC2(C)C1C(O)CC1C3(C)CCC(O)C(C)(C)C3C(OC3OC(CO)C(O)C(O)C3OC3OC(C)C(O)C(O)C3O)CC12C (centres undefined) |
| 2.74 min | CS(=O)CCCCCCCCC(N)C(=O)O (centres undefined) |
| 5.34 min | O=c1cc(-c2ccc(O)c(O)c2)oc2cc(O)cc(O)c12 |
| 7.38 min | O=c1cc(-c2ccc(O)cc2)oc2cc(O)ccc12 |
| 3.72 min | COc1cc(-c2oc3cc(OC4OC(C)C(O)C(O)C4O)cc(O)c3c(=O)c2O)ccc1O (centres undefined) |
| 2.19 min | COc1ccc2c(c1)OC(OC1OC(C(=O)O)C(O)C(O)C1O)C(O)N2 (centres undefined) |
| 2.36 min | CC(C)CC(NC(=O)C(C)N)C(=O)O (centres undefined) |
| 3.7 min | O=c1c(OC2OC(COC3OCC(O)C(O)C3O)C(O)C(O)C2O)c(-c2ccc(O)c(O)c2)oc2cc(O)cc(O)c12 (centres undefined) |
| 3.14 min | O=C(CCc1ccc(O)c(O)c1)NCCCCNCCCNC(=O)CCc1ccc(O)c(O)c1 |
| 8.57 min | CC1CCC2(OC1)OC1CC3C4CC=C5CC(O)CC(OC6OCC(O)C(O)C6OC6OC(C)C(O)C(O)C6O)C5(C)C4CCC3(C)C1C2C (centres undefined) |
| 4.1 min | O=C(O)CCCCCCC(=O)O |
| 6.19 min | CCC(C)=CCCC(C)(OC1OC(COC2OCC(O)C(O)C2O)C(O)C(O)C1O)C1CCC2(C)C3CCC4C(C)(C)C(OC5OC(CO)C(O)C(O)C5OC5OC(CO)C(O)C(O)C5O)CCC4(C)C3CC(O)C12 (centres undefined) |
| 5.16 min | O=C(O)CC(=O)OCC1OC(Oc2cc(O)c3c(=O)cc(-c4ccc(O)cc4)oc3c2)C(O)C(O)C1O (centres undefined) |
| 8.56 min | O=c1c(O)c(-c2ccc(O)cc2)oc2ccccc12 |
| 5.73 min | COc1ccc(-c2coc3cc(OC4OC(CO)C(O)C(O)C4O)cc(O)c3c2=O)cc1 (centres undefined) |
